Reference: patent US10219516B2, “Molecules having pesticidal utility, and intermediates, compositions, and processes, related thereto” (priority 2015, dated 2019)
Read-outs that look alike come from different tables or passages of the source.

Columns and labels:
[1] = test system: Beet Armyworm (Spodoptera exigua, LAPHEG); experiment: Bioassay on Beet Armyworm (BAW), 128-well diet tray assay; format: in vivo
Procedure: (§1) Certain molecules disclosed in this document were tested against BAW and CL using procedures described in the following examples. In the reporting of the results, the “BAW & CL Rating Table” was used (See Table Section).
Bioassays on BAW were conducted using a 128-well diet tray assay. One to five second instar BAW larvae were placed in each well (3 mL) of the diet tray that had been previously filled with approximately 1.5 mL of artificial diet to which 50 μg/cm^2 of the test molecule (dissolved in 50 μL of 90:10 acetone-water mixture) had been applied (to each of eight wells) and then allowed to dry. Trays were covered with a clear self-adhesive cover, vented to allow gas exchange, and held at 25° C., 14:10 light-dark for five to seven days. Percent mortality was recorded for the larvae in each well; activity in the eight wells was then averaged. The results are indicated in the table entitled “Table ABC: Biological Results” (See Table Section).

[2] = test system: Cabbage Looper (Trichoplusia ni, TRIPNI); experiment: Bioassay on Cabbage Looper (CL), 128-well diet tray assay; format: in vivo; conditions: for pest or weed control at 50 µg/cm2: Trichoplusia ni
Procedure: as §1
Bioassays on CL were conducted using a 128-well diet tray assay. one to five second instar CL larvae were placed in each well (3 mL) of the diet tray that had been previously filled with 1 mL of artificial diet to which 50 μg/cm^2 of the test molecule (dissolved in 50 μL of 90:10 acetone-water mixture) had been applied (to each of eight wells) and then allowed to dry. Trays were covered with a clear self-adhesive cover, vented to allow gas exchange, and held at 25° C., 14:10 light-dark for five to seven days. Percent mortality was recorded for the larvae in each well; activity in the eight wells was then averaged. The results are indicated in the table entitled “Table ABC: Biological Results” (See Table Section).

[3] = Beet Armyworm, 128-well diet tray assay, read-out: BAW rating
[4] = Cabbage Looper, 128-well diet tray assay, read-out: CL rating
[5] = Species BAW (Beet Armyworm), read-out: BAW (Biological Results, rating)
[6] = Species CL (Cabbage Looper), read-out: CL (Biological Results, rating)

Row | SMILES | pest or weed control at 50 µg/cm2 [1, 3] [%] | pest or weed control at 50 µg/cm2 [2, 4] [%] | pest or weed control at 50 µg/cm2 [1, 5] [%] | pest or weed control at 50 µg/cm2 [2, 6] [%] | other results
1 | O=C(Nc1ccc2c(c1)C(=O)NC2=O)c1cc(NC(=O)[C@H]2[C@H](c3cc(Cl)cc(Cl)c3)C2(Cl)Cl)ccc1Cl (relative stereo) [F439, trans-2-Chloro-5-(2,2-dichloro-3-(3,5-dichlorophenyl)cyclopropane-1-carboxamido)-N-(1,3-dioxoisoindolin-5-yl)benzamide] | 50 to 100 | 50 to 100 |  |  | 
2 | C[S+]([O-])c1ccc(NC(=O)[C@H]2[C@H](c3cc(Cl)cc(Cl)c3)C2(Cl)Cl)cc1C(=O)Nc1ccc(F)cc1 (relative stereo) [F158, trans-5-(2,2-dichloro-3-(3,5-dichlorophenyl)cyclopropane-1-carboxamido)-N-(4-fluorophenyl)-2-(methylsulfinyl)benzamide] |  |  | 50 to 100 | 50 to 100 | 
3 | O=C(Nc1cccc(Cl)c1)c1cc(NC(=O)[C@H]2[C@H](c3cc(Cl)cc(Cl)c3)C2(Cl)Cl)ccc1Cl (relative stereo) [F43, trans-2-Chloro-N-(3-chlorophenyl)-5-(2,2-dichloro-3-(3,5-dichlorophenyl)cyclopropane-1-carboxamido)benzamide] |  |  | 50 to 100 | 50 to 100 | 
4 | Cc1cc(NS(C)(=O)=O)ccc1NC(=O)c1cc(NC(=O)C2C(c3cc(Cl)cc(Cl)c3)C2(Cl)Cl)ccc1Cl (stereo not drawn) [F487, 2-chloro-5-(trans)-2,2-dichloro-3-(3,5-dichlorophenyl)cyclopropane-1-carboxamido)-N-(2-methyl-4-(methylsulfonamido)phenyl)benzamide] | 50 to 100 | 50 to 100 |  |  | 
5 | CN(C(=O)c1cc(NC(=O)[C@H]2[C@H](c3cc(Cl)c(F)c(Cl)c3)C2(Cl)Cl)ccc1Cl)c1ccc(F)cc1 (relative stereo) [F97, trans-2-Chloro-5-(2,2-dichloro-3-(3,5-dichloro-4-fluorophenyl)cyclopropane-1-carboxamido)-N-(4-fluorophenyl)-N-methylbenzamide] |  |  | 50 to 100 | 50 to 100 | 
6 | O=C(Nc1ccc(F)cc1)c1cccc(NC(=O)[C@H]2[C@H](c3cc(Cl)cc(Cl)c3)C2(Cl)Cl)n1 (relative stereo) [F133, trans-6-(2,2-Dichloro-3-(3,5-dichlorophenyl)cyclopropane-1-carboxamido)-N-(4-fluorophenyl)picolinamide] |  |  | 50 to 100 | 50 to 100 | 
7 | CC(C)(C)OC(=O)N(C(=O)OC(C)(C)C)c1c(F)ccc(NC(=O)c2cc(NC(=O)[C@H]3[C@H](c4ccc(F)c(Cl)c4)C3(Cl)Cl)ccc2Cl)c1F [F503, tert-Butyl-N-((tert-butoxy)carbonyl)-N-(3-(2-chloro-5-((1R,3R)-2,2-dichloro-3-(3-chloro-4-fluorophenyl)cyclopropane-1-carboxamido)benzamido)-2,6-difluorophenyl)carbamate] | 50 to 100 | 50 to 100 |  |  | 
8 | Cc1cc(N)ccc1NC(=O)c1cc(NC(=O)[C@H]2[C@H](c3ccc(Cl)c(Br)c3)C2(Cl)Cl)ccc1Cl (relative stereo) [F336, N-(4-Amino-2-methylphenyl)-5-(trans-3-(3-bromo-4-chlorophenyl)-2,2-dichlorocyclopropane-1-carboxamido)-2-chlorobenzamide] |  |  | 50 to 100 | 50 to 100 | 
9 | O=C(Nc1ccc(F)c(C(F)(F)F)c1)c1cc(NC(=O)[C@H]2[C@H](c3cc(Cl)cc(Cl)c3)C2(Cl)Cl)ccc1Cl (relative stereo) [PF70, trans-2-Chloro-5-(2,2-dichloro-3-(3,5-dichlorophenyl)cyclopropane-1-carboxamido)-N-(4-fluoro-3-(trifluoromethyl)phenyl)benzamide] | 50 to 100 | 50 to 100 |  |  | 
10 | Nc1c(F)ccc(NC(=O)c2cc(NC(=O)C3C(c4ccc(F)c(Br)c4)C3(Cl)Cl)ccc2Cl)c1F (stereo not drawn) [F625, N-(3-Amino-2,4-difluorophenyl)-5-(3-trans-(3-bromo-4-fluorophenyl)-2,2-dichlorocyclopropane-1-carboxamido)-2-chlorobenzamide] | 50 to 100 | 50 to 100 |  |  | 
11 | O=C(Nc1ccc(-c2ncco2)cc1)c1cc(NC(=O)[C@H]2[C@H](c3cc(Cl)cc(Cl)c3)C2(Cl)Cl)ccc1Cl (relative stereo) [F446, trans-2-Chloro-5-(2,2-dichloro-3-(3,5-dichlorophenyl)cyclopropane-1-carboxamido)-N-(4-(oxazol-2-yl)phenyl)benzamide] | 50 to 100 | 50 to 100 |  |  | 
12 | N#CC1(C(=O)Nc2ccc(NC(=O)c3cc(NC(=O)[C@H]4[C@H](c5cc(Cl)cc(Cl)c5)C4(Cl)Cl)ccc3Cl)cc2)CC1 (relative stereo) [PF109, trans-2-Chloro-N-(4-(1-cyanocyclopropane-1-carboxamido)phenyl)-5-(2,2-dichloro-3-(3,5-dichlorophenyl)cyclopropane-1-carboxamido)benzamide] | 50 to 100 | 50 to 100 |  |  | 
13 | O=C(Nc1cnns1)c1cc(NC(=O)[C@H]2[C@H](c3cc(Cl)cc(Cl)c3)C2(Cl)Cl)ccc1Cl (relative stereo) [F138, trans-2-Chloro-5-(2,2-dichloro-3-(3,5-dichlorophenyl)cyclopropane-1-carboxamido)-N-(1,2,3-thiadiazol-5-yl)benzamide] |  |  | 50 to 100 | 50 to 100 | 
14 | O=C(Nc1c(F)cccc1F)c1cc(NC(=O)[C@H]2[C@H](c3cc(F)cc(Cl)c3)C2(Cl)Cl)ccc1Cl (relative stereo) [F160, trans-2-Chloro-5-(2,2-dichloro-3-(3-chloro-5-fluorophenyl)cyclopropane-1-carboxamido)-N-(2,6-difluorophenyl)benzamide] |  |  | 50 to 100 | 50 to 100 | 
15 | CC1(c2cc(Cl)cc(Cl)c2)C(C(=O)Nc2ccc(Cl)c(C(=O)Nc3ccc(F)cc3)c2)C1(Cl)Cl (stereo not drawn) [F253, 2-Chloro-5-cis-2,2-dichloro-3-(3,5-dichlorophenyl)-3-methylcyclopropane-1-carboxamido)-N-(4-fluorophenyl)benzamide] |  |  |  |  | CL (Biological Results, rating) ([2]; Species CL (Cabbage Looper)): A (50-100)
16 | CC(C)(C)OC(=O)N(C(=O)OC(C)(C)C)c1c(F)ccc(NC(=O)c2cc(NC(=O)[C@H]3[C@H](c4cc(Cl)cc(Cl)c4)C3(Cl)Cl)ccc2Cl)c1F [F499, tert-Butyl-N-((tert-butoxy)carbonyl)-N-(3-(2-chloro-5-((1R,3R)-2,2-dichloro-3-(3,5-dichlorophenyl)cyclopropane-1-carboxamido)benzamido)-2,6-difluorophenyl)carbamate] | 50 to 100 |  |  |  | 
17 | Cc1cc(N(C)C(=O)OC(C)(C)C)ccc1NC(=O)c1cc(NC(=O)[C@H]2[C@H](c3ccc(F)c(Cl)c3)C2(Cl)Cl)ccc1Cl (relative stereo) [F219, trans-tert-Butyl-(4-(2-chloro-5-(2,2-dichloro-3-(3-chloro-4-fluorophenyl)cyclopropane-1-carboxamido)benzamido)-3-methylphenyl)(methyl)carbamate] |  |  | 50 to 100 |  | 
18 | CC(C)(C)OC(=O)N(C(=O)OC(C)(C)C)c1c(F)ccc(NC(=O)c2cc(NC(=O)[C@H]3[C@H](c4cc(Cl)cc(C#N)c4)C3(Cl)Cl)ccc2Cl)c1F (relative stereo) [F515, trans-tert-Butyl-N-((tert-butoxy)carbonyl)-N-(3-(2-chloro-5-(2,2-dichloro-3-(3-chloro-5-cyanophenyl)cyclopropane-1-carboxamido)benzamido)-2,6-difluorophenyl)carbamate] |  | 50 to 100 |  |  | 
19 | CCc1cc(C(F)(C(F)(F)F)C(F)(F)F)cc(CC)c1NC(=O)c1cc(NC(=O)[C@H]2[C@H](c3cc(Cl)cc(Cl)c3)C2(Cl)Cl)ccc1Cl (relative stereo) [PF61, trans-2-Chloro-5-(2,2-dichloro-3-(3,5-dichlorophenyl)cyclopropane-1-carboxamido)-N-(2,6-diethyl-4-(perfluoropropan-2-yl)phenyl)benzamide] | 0 to 50 |  |  |  | 
20 | CSc1nc(NC(=O)c2cc(NC(=O)[C@H]3[C@H](c4cc(Cl)cc(Cl)c4)C3(Cl)Cl)ccc2Cl)n[nH]1 (relative stereo) [F184, trans-2-Chloro-5-(2,2-dichloro-3-(3,5-dichlorophenyl)cyclopropane-1-carboxamido)-N-(5-(methylthio)-1H-1,2,4-triazol-3-yl)benzamide] |  |  |  | 50 to 100 | 
21 | CC(C)(C)OC(=O)N(C(=O)OC(C)(C)C)c1c(F)cc(F)cc1NC(=O)c1cc(NC(=O)[C@H]2[C@H](c3cc(Cl)cc(Cl)c3)C2(Cl)Cl)ccc1Cl [F521, tert-Butyl-N-((tert-butoxy)carbonyl)-N-(2-(2-chloro-5-((1R,3R)-2,2-dichloro-3-(3,5-dichlorophenyl)cyclopropane-1-carboxamido)benzamido)-4,6-difluorophenyl)carbamate] |  | 0 to 50 |  |  | 
